Results as given in US9814761B2, “Compositions, methods and assays comprising amylin or amlyin analogs for abeta-peptide mediated disorders” (TRUSTEES OF BOSTON UNIVERSITY, priority 2012, dated 2017).
“Also recorded” adds a separate entry of the source.

Columns and labels:
5XFAD mice [1] = assay: Y-water Maze test after long-term amylin treatment; format: in vivo
Procedure: 5XFAD mice were treated with either i.p amylin or saline for 8 weeks followed by Y-water maze test. The average latency of recognizing the object after the training was calculated for each group (n=10) and statistical significance for the comparison is shown.

[2] = Banks and Kastin, 1998; cited from earlier work
5XFAD mice [3] = assay: Y Maze Spontaneous Alternation test after long-term amylin treatment; format: in vivo; conditions: 5XFAD mice aged 2 months; amylin 20 mcg/kg i.p. daily for 10 weeks vs. saline; n=8
Procedure: Since amylin can enhance the removal of Aβ out of the brain into blood, it was tested whether amylin and its analogs can be a treatment for AD. Thus, we treated 5XFAD mice aged 2 months old with i.p injection of amylin (20 mcg/kg) vs. saline (n=8 in each group) daily for 10 weeks, and then conducted Y Maze Spontaneous Alternation test for measuring the willingness of mice to explore new environments.

serum Aβ1-40 and Aβ1-42 [4] = assay: amylin challenge test: i.p. injection, serum Aβ1-40 and Aβ1-42 by ELISA, Tg2576 mice; format: in vivo; conditions: 5 minutes
Procedure: (§1) TgAPP2576 mice (n=5) and control mice (n=5) were used. Intraperitoneal injection of amylin (20 mg/kg) was performed, and blood was drawn and collected at pre-injection, after injection at 5 minutes, 1 hr and 24 hrs. Serum Aβ1-40 and Aβ1-42 were measured using ELISA assay. The results of serum Aβ1-40 and Aβ1-42 for each individual mouse are shown. This experiment has been repeated twice for each mouse and similar results were obtained.
(§2) As shown at FIGS. 3A-3E, amylin injection removes Aβ from the brain into blood in APP transgenic mice. Both the Tg2576 and wild type (WT) mice were used for the amylin challenge test. FIGS. 3A-3B. Amylin (20 mg/kg) was intraperitoneally injected (i.p), and blood was drawn and collected at the time points of pre-injection (the control n=7; Tg2576 n=11), after injection 5 minutes (the control n=7; Tg2576 n=6), 1 hr (the control n=7; Tg2576 n=10) and 24 hrs (the control n=7; Tg2576 n=11). Serum Aβ1-40 and Aβ1-42 were measured by using the ELISA assays. FIGS. 3C-3E. The levels of serum Aβ1-40 and Aβ1-42 at pre-injection of amylin were treated as 1 s, and the relative fold increase after amylin injection at each time point was shown and compared with the pre-injection level by using two-way ANOVA. ***p<0.01; **p<0.05 and *p<0.10.
(§3) FIGS. 6A-6D depict amylin injection and serum Aβ in mice. Both control mice (wild type) and Tg2576 mice were used for the amylin injection test. Amylin (20 mcg/kg) was intraperitoneally injected (i.p), and blood was drawn at the following time points: at baseline or pre-injection (controls n=7; Tg2576 n=11), at 5 minutes (controls n=7; Tg2576 n=6), at 1 hr (controls n=7; Tg2576 n=10) and at 24 hrs (controls n=7; Tg2576 n=11) post injection. Serum Aβ1-40 and Aβ1-42 were measured by using the ELISA assays. The levels of serum Aβ1-40 and Aβ1-42 at pre-injection of amylin were treated as 1 s, and the relative fold increase after amylin injection at each time point was shown and compared with the pre-injection level by using a two-way ANOVA. ***p<0.01; **p<0.05 and *p<0.10.
(§4) Validation: We used the APP transgenic mice (Tg2576) to conduct amylin challenge test. Tg2576 mice have Aβ deposits in the brain like the AD pathology. After intraperitoneal injection of amylin (20 mg/kg), Tg2576 mice (n=5) presented with the increase of serum Aβ40 and Aβ42 at 5 minutes, 1 hr and 24 hrs compared to the pre-injection levels of serum Aβ40 and Aβ42.

[5] = test system: Aβ1-40 and Aβ1-42 in blood; assay: amylin challenge test, blood Aβ, APP Dutch mutation mouse line; format: in vivo, APP mouse line which carries the APP Dutch mutation
[6] = test system: Aβ monomers and Aβ oligomers in the brain; assay: Aβ in the brain after amylin treatment, western blots and ELISA assays; format: in vivo; conditions: 5XFAD mice; amylin treatment compared to saline
Excerpt: Changes of Aβ in the brain were examined after the amylin treatment in 5XFAD mice using both western blots and ELISA assays. […] Thus, without wishing to be bound or limited by theory, the benefits of memory improvement from amylin treatment is mediated, in part, by 1) removing Aβ from the AD brain into blood and 2) reducing the amount of Aβ oligomers in the brain.

mouse models = assay: daily dosing in mouse models, memory functions; format: in vivo, mice
serum Aβ1-40 and Aβ1-42 [7] = assay: amylin challenge test, serum Aβ, 5XFAD mice; format: in vivo
Excerpt: The higher the levels of Aβ and the number of amyloid plaques in the brain, the higher fold of serum Aβ was increased after the peripheral amylin challenge.

serum Aβ1-40 and Aβ1-42 [8] = assay: amylin challenge test: i.p. injection, serum Aβ1-40 and Aβ1-42 by ELISA, control (wild type) mice; format: in vivo
Procedure: as §1, §2, §3
FIG. 7 depicts results of i.p injection of pramlintide, an analog of amylin, into one Tg2576 mouse (A1) and two wild type mice (N1 and N2) and comparison of their serum Aβ40 level before and after the injection.
as §4

[9] = Tg2576 mice (n=5), amylin 20 mg/kg intraperitoneal, 1 hr and 24 hrs
[10] = Tg2576 mice, single amylin injection 20 mcg/kg i.p., 1 hr, 24 hrs
[11] = control mice (n=5), amylin 20 mg/kg intraperitoneal
[12] = control mice (wild type), single amylin injection 20 mcg/kg i.p.

amylin (KCNTATCATQRLANFLVHSSNNFGAILSSTNVGSNTY; listed as Homo sapiens)
Y-water maze, average latency of recognizing the object after the training (5XFAD mice [1]; 5XFAD mice, i.p. amylin or saline for 8 weeks, n=10): improves; also recorded: improved memory impairment
time for acquisition (escaping onto the platform) (5XFAD mice [1]; APP transgenic mice, long-term amylin treatment vs placebo): significantly reduced
memory retention: time to find the platform (5XFAD mice [1]; APP transgenic mice, long-term amylin treatment vs placebo, at 30 minutes and at 3 days, p<0.02): shortening the time to find the platform
passage through the brain blood barrier (BBB) into the brain [2]: freely passes through the brain blood barrier (BBB)
% alternation rate (5XFAD mice [3]): significantly increased
serum Aβ40 compared to the pre-injection level (serum Aβ1-40 and Aβ1-42 [4]; [9]): increase
serum Aβ42 compared to the pre-injection level (serum Aβ1-40 and Aβ1-42 [4]; [9]): increase
serum Aβ40 compared to the pre-injection level (serum Aβ1-40 and Aβ1-42 [4]; [10]): surges
serum Aβ42 compared to the pre-injection level (serum Aβ1-40 and Aβ1-42 [4]; [10]): surges
Aβ1-40 in blood [5]: surge
amount of Aβ monomers in the brain [6]: did not change
amount of Aβ oligomers in the brain [6]: significantly reduced
memory functions / cognition (mouse models): increased memory functions
Aβ1-42 in serum (serum Aβ1-40 and Aβ1-42 [7]; 5XFAD mice aged 3 months, i.p. injection of amylin): increased level
serum Aβ levels after peripheral amylin injection (serum Aβ1-40 and Aβ1-42 [7]; different aged 5XFAD mice): increase of serum Aβ levels reflecting the amounts of Aβ in the brains
serum Aβ40 compared to the pre-injection level (serum Aβ1-40 and Aβ1-42 [8]; [11]): did not have these surges
serum Aβ42 compared to the pre-injection level (serum Aβ1-40 and Aβ1-42 [8]; [11]): did not have these surges
serum Aβ40 compared to the pre-injection level (serum Aβ1-40 and Aβ1-42 [8]; [12]): none of the control mice (wild type), had surges
serum Aβ42 compared to the pre-injection level (serum Aβ1-40 and Aβ1-42 [8]; [12]): none of the control mice (wild type), had surges
